Like-named read-outs stand apart in the source and are kept apart here.
Experiments:
[1] = tested on: rhythmic bladder voiding contractions; test: Volume-induced rhythmic bladder voiding contractions in anaesthetized rats; type: in vivo, rat; details: intravenous administration, anaesthetized rats; for ED50: Rattus norvegicus, extrapolated dose inducing a reduction of the number of contractions >30% in 50% of treated rats, read-out: ED50 (frequency); for ED10min: extrapolated dose inducing 10 min of disappearance of the contractions
Method: Female Sprague Dawley rats weighing 225-275 g (Crl: CDo BR, Charles River Italia) were used. The animals were housed with free access to food and water and were maintained on a forced 12 h alternating light-dark cycle at 22-24° C. for at least one week, except during the experiment. The activity on the rhythmic bladder voiding contractions was evaluated according to the method of Dray (J. Pharmacol. Methods, 13:157, 1985), with some modifications as in Guarneri (Pharmacol. Res., 27:173, 1993). Briefly, rats were anesthetized by subcutaneous injection of 1.25 g/kg (5 ml/kg) urethane, after which the urinary bladder was catheterized via the urethra using PE 50 polyethylene tubing filled with physiological saline. The catheter was tied in place with a ligature around the external urethral orifice and was connected with conventional pressure transducers (Statham P23 ID/P23 XL). […] The bladder was then filled via the recording catheter by incremental volumes of warm (37° C.) saline until reflex bladder voiding contractions occurred (usually 0.8-1.5 ml). For intravenous (i.v.) injection of bioactive compounds, PE 50 polyethylene tubing filled with physiological saline was inserted into the jugular vein.
From the cystometrogram, the number of contractions recorded 15 min before (basal values) and after treatment, as well as the mean amplitude of these contractions (mean height of the peaks in mm Hg) was evaluated.
Since most compounds produced an effect that was relatively rapid in onset and led to a complete cessation of bladder contractions, bioactivity was conveniently estimated by measuring the duration of bladder quiescence (i.e., the duration of time during which no contractions occurred). Moreover, the number of animals tested showing a reduction in the number of contractions >30% of that observed in the basal period, was recorded. […] Also computed in this manner were extrapolated doses which induced a reduction of the number of contractions of greater than 30% in 50% of treated rats (ED50, frequency) by the method of Bliss (Bliss C. I., Quart. J. Pharm. Pharmacol. 11, 192-216, 1938). After the suppressive effects of drug injection wore off, the height of the contractile peaks was compared with the height of the peaks previously recorded after the control intravenous administration of vehicle. The potency of the tested compounds (ED50 value, the extrapolated doses inducing a 30% reduction of amplitude of the contractions in 50% of treated rats) was evaluated on a quantal basis by the method of Bliss (Bliss C. I., Quart. J. Pharm. Pharmacol. 11, 192-216, 1938).

[2] = target: T1, human 5-HT1A serotonergic receptor (Homo sapiens, UniProt P08908); test: Radioreceptor binding to recombinant human 5-HT1A receptors ([3H]8-OH-DPAT, HeLa cell membranes)
T1 construct: expressed in transfected cells; host or cells: HeLa (human), stably transfected; cell membranes
T1 sequence (P08908 1-422): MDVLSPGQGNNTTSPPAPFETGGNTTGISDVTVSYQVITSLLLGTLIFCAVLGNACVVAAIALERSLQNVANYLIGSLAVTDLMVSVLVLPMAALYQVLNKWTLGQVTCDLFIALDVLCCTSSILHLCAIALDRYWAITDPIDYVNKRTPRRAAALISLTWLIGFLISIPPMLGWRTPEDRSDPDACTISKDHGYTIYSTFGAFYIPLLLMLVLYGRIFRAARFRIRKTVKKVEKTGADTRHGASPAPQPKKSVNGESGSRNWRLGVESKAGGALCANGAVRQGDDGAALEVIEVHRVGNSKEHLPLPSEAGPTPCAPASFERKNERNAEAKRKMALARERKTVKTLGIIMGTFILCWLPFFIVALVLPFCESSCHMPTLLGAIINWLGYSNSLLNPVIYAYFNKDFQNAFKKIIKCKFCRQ
Method: Genomic clone G-21 coding for the human 5-HT1A serotonergic receptor is stably transfected in a human cell line (HeLa). HeLa cells were grown as monolayers in Dulbecco's modified Eagle's medium (DMEM), supplemented with 10% fetal calf serum and gentamicin ([…]), 5% CO2 at 37° C. Cells were detached from the growth flask at 95% confluence by a cell scraper and were lysed in ice-cold 5 mM Tris and 5 mM EDTA buffer (pH 7.4). Homogenates were centrifuged at 40000×g×20 min and pellets were resuspended in a small volume of ice-cold 5 mM Tris and 5 mM EDTA buffer (pH 7.4) and immediately frozen and stored at −70° C. until use. On the day of experiment, cell membranes were resuspended in binding buffer: 50 mM Tris HCl (pH 7.4), 2.5 mM MgCl2, 10 μM pargyline (Fargin et al., Nature 335, 358-360, 1988). Membranes were incubated in a final volume of 1 ml for 30 min at 30° C. with 0.2-1 nM [^3H]8-OH-DPAT, in absence or presence of competing drugs; non-specific binding was determined in the presence of 10 μM 5-HT. The incubation was stopped by addition of ice-cold Tris-HCl buffer and rapid filtration through 0.2% polyethyleneimine-pretreated Whatman GF/B or Schleieher & Schuell GF52 filters.
(§1) The inhibition of specific binding of the radioligands by the tested drugs was analyzed to estimate the IC50 value by using the non-linear curve-fitting program Allfit (De Lean et al., Am. J. Physiol. 235, E97-E102, 1978). The IC50 value is converted to an affinity constant (Ki) by the equation of Cheng & Prusoff (Cheng, Y. C.; Prusoff, W. H. Biochem. Pharmacol. 22, 3099-3108, 1973).

[3] = target: T2, 5-HT2A serotonergic receptors (Rattus norvegicus, UniProt P14842); test: Radioreceptor binding to native 5-HT2A serotonergic receptors ([3H]ketanserin, rat cerebral cortex membranes); details: rat cerebral cortex membranes, [3H]ketanserin; read-out: Ki 5-HT2A
T2 construct: from tissue; host or cells: cerebral cortex of male Sprague Dawley rats, membranes
T2 sequence (P14842 whole entry): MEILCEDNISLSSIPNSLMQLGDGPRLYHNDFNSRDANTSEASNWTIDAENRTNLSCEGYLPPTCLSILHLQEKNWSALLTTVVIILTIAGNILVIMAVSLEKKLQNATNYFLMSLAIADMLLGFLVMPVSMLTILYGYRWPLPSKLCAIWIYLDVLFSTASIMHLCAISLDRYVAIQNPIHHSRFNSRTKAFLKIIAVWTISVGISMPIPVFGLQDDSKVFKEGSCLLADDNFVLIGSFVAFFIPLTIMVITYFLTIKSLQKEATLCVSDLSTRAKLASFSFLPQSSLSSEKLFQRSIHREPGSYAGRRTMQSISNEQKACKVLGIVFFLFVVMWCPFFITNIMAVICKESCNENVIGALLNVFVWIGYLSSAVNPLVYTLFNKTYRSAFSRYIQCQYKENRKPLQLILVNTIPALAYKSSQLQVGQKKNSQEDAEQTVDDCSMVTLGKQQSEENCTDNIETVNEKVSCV
Method: Binding studies on native 5-HT2A serotonergic receptors (Craig A. and Kenneth J., Life Sci. 38, 117-127, 1986) were carried out in membranes of rat cerebral cortex. Male Sprague Dawley rats (200-300 g, S D Harlan/Nossan, Italy) were killed by cervical dislocation and cerebral cortexes were excised and immediately frozen in liquid nitrogen and stored at −70° C. until use. Tissues were homogenized (2×20 sec) in 50 volumes of cold 50 mM Tris-HCl buffer pH 7.4, using a Polytron homogenizer (speed 7). Homogenates were centrifuged at 49000×g for 10 min, resuspended in 50 volumes of the same buffer, incubated at 37° C. for 15 min and centrifuged and resuspended twice more. The final pellets were suspended in 100 volumes of 50 mM Tris-HCl buffer pH 7.7. Membranes were incubated in a final volume of 1 ml for 20 min at 37° C. with 0.7-1.3 nM [^3H]ketanserin (5-HT2A receptors), in absence or presence of competing drugs. Non-specific binding was determined in the presence of 2 μM ketanserin. The incubation was stopped by addition of ice-cold 50 mM Tris-HCl buffer and rapid filtration through 0.2% polyethyleneimine pretreated Whatman GF/B or Schleicher & Schuell GF52 filters. The filters are then washed with ice-cold buffer and the radioactivity retained on the filters was counted by liquid scintillation spectrometry.
as §1

α1 adrenergic receptors = test: Radioreceptor binding to native α1 adrenergic receptors ([3H]prazosin, rat cerebral cortex membranes)
Method: Binding studies on native α1 adrenergic receptors were carried out in membranes of rat cerebral cortex. Male Sprague Dawley rats (200-300 g, Charles River, Italy) were killed by cervical dislocation and cerebral cortexes were dissected and immediately frozen and stored at −70° C. until use. Tissue was homogenized (2×20 sec) in 50 volumes of cold 50 mM Tris-HCl buffer pH 7.4, using a Polytron homogenizer (speed 7). Homogenates were centrifuged at 48000×g for 10 min, resuspended in 50 volumes of the same buffer, incubated at 37° C. for 15 min and centrifuged and resuspended twice more. The final pellets were suspended in 100 volumes of 50 mM Tris-HCl buffer pH 7.4, containing 10 μM pargyline and 0.1% ascorbic acid. Membranes were incubated in a final volume of 1 ml for 30 min at 25° C. with 0.1-0.5 nM [^3H]prazosin, in the absence or presence of competing drugs; non-specific binding was determined in the presence of 10 μM phentolamine.
The incubation was stopped by addition of ice-cold 50 mM Tris-HCl buffer and rapid filtration through 0.2% polyethyleneimine-pretreated Whatman GF/B or Schleicher & Schuell GF52 filters. The filters were then washed with ice-cold buffer and the radioactivity retained on the filters counted by liquid scintillation spectrometry.
as §1

SMILES | ED50 [1] | ED10min [1] | Ki [2] | Ki [3] | Ki (α1 adrenergic receptors) | Ki ([2]; recombinant human receptor in HeLa membranes, [3H]8-OH-DPAT, read-out: Ki 5-HT1A)
COc1ccccc1N1CCN(CCC(C(N)=O)(c2ccccc2)c2ccccn2)CC1 (stereo not shown) [Ex. 10, 1-[3-aminocarbonyl-3-phenyl-3-(2-pyridyl)propyl]-4-(2-methoxyphenyl)piperazine] | 0.18 mg/kg | 0.228 mg/kg | 19.3 nM | 683 nM | 1320 nM | –
COc1ccccc1N1CCN(CCC(O)(c2ccccn2)c2ccccn2)CC1 [Ex. 14, 1-[3-hydroxy-3,3-bis-(2-pyridyl)propyl]-4-(2-methoxyphenyl)piperazine] | 0.036 mg/kg | 0.127 mg/kg | – | > 1000 nM | 114 nM | 0.34 nM
